Laboratory results from patent US20260183274A1, “PDK1 REGULATORY COMPOUND AND COMPOSITION CONTAINING THE SAME” (PROVIBIO CO., LTD., priority 2024, published 2026).

Experiments:
[1] = molecular target: T1, PDK1-PKD protein (Protein Kinase Domain fragment) (Homo sapiens, UniProt O15530); assay: Microscale Thermophoresis (MST) binding affinity, PDK1-PKD; conditions: in the presence of ATP; FIG. 48; read-out: Dissociation constant (Kd), PDK1-PKD
T1 construct: the Protein Kinase Domain (PKD) fragment; inferred from Ni-NTA purification; made in house; host or cells: Sf9 insect cells, baculovirus expression system
T1 sequence (O15530 82-342 limits assumed): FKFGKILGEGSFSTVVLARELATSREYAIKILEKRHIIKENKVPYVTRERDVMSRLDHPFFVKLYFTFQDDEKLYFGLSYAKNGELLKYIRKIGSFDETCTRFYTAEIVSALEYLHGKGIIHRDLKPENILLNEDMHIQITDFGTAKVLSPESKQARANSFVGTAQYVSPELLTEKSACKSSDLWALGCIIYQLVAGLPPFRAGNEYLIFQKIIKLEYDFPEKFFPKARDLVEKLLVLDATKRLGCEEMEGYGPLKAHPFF
Description: Microscale Thermophoresis (MST) analysis was performed to quantitatively measure the binding affinity between PDK1 protein and substrate peptides (PDKTide) or the company-developed low-molecular-weight compound (GO88).
The target proteins were the full-length (PDK1-FL) protein of human-derived PDK1 and the Protein Kinase Domain (PKD) fragment, which were expressed using a baculovirus expression system in insect cell lines (Sf9).
The purity of the purified proteins was confirmed by SDS-PAGE and Coomassie Brilliant Blue staining.
The purified protein was labeled with a fluorescent label using the Monolith NT™ RED-NHS Protein Fluorescent Labeling Kit (NanoTemper).
Specifically, 20 μM of the protein was dissolved in PBS (pH 7.4) buffer, mixed with the fluorescent reagent, and reacted at room temperature under dark conditions for 30 minutes. The mixture was then buffered with MST analysis buffer (50 mM HEPES, 150 mM NaCl, 1 mM DTT, 0.05% Tween-20, pH 7.5). […]
The reaction samples were injected into an MST-specific capillary (NanoTemper) and analyzed using a Monolith NT.115 device (NanoTemper) under laser intensity conditions. […]
The measured data were analyzed using MO.Affinity Analysis software (NanoTemper), and the dissociation constant (Kd) was calculated from the binding curve.

[2] = test system: C57BL/6 mice with skin grafts; assay: Skin graft animal model (BALB/c donor, C57BL/6 recipient); assay type: in vivo, mouse; conditions: 0.15 mg/kg twice daily
Description: To evaluate the immune-suppressive effects of the compounds according to the present invention, a skin graft animal model was established, and the efficacy of the compounds was analyzed in the model.
First, female BALB/c mice aged 7 weeks and weighing approximately 20 g were used as donor animals, and female C57BL/6 mice of the same age and weight were used as recipient animals. All experimental animals were supplied by HanabioTech Co., Ltd.
Prior to the experiment, the animals were acclimatized in SPF-certified facilities for one week and then used in the experiment. The housing conditions were maintained at a temperature of 22±2° C., relative humidity of 55+10%, and a 12-hour light-dark cycle.
To establish the skin graft model, a anesthetic solution consisting of ketamine, […], and PBS in a volume ratio of 1:1:3 was administered intraperitoneally to C57BL/6 mice to induce anesthesia.
The hair on the dorsal side of the anesthetized mice was removed and disinfected, followed by excision of the full-thickness skin using an 8 mm punch. Subsequently, skin of the same size was harvested from donor mice (BALB/c) and transplanted. […]
Subsequently, the proportions of CD3- and B220-positive cells were analyzed using a flow cytometer.

[3] = test system: human lung fibroblasts MRC-5 cell lines; assay: TGF-β induced Collagen I expression in MRC-5 cells (Western blot); assay type: cell-based; conditions: TGF-β 5 ng/ml; 0.5 μM and 1 μM; 24 hours; FIG. 44
Description: To confirm that the compound of the present invention directly acts on fibrosis-related mechanisms, in vitro experiments were performed using human lung fibroblasts MRC-5 cell lines (Korea Cell Bank).
First, MRC-5 cells were seeded at 5×10^3 cells per well in a 6-well plate and stabilized for 24 hours.
Subsequently, experimental groups were established, including a control group, a group treated with TGF-β (5 ng/ml) alone, and groups treated with TGF-β and the compound GO88 from the present invention at concentrations of 0.5 μM and 1 μM, respectively.
After treating each group with the drugs for 24 hours, the cell medium was removed, and the cells were washed twice with cold PBS. Then, RIPA lysis buffer containing phosphatase inhibitor and protease inhibitor was added to each group to extract proteins.
The extracted proteins were incubated at 4° C. for 30 minutes, then centrifuged at 13,000 rpm for 15 minutes, and the supernatant was collected. The total protein concentration was measured using the BCA protein quantification method.
Subsequently, the proteins were separated by SDS-PAGE, transferred to a PVDF membrane, and Western blot analysis was performed.
The expression levels of Collagen I, a marker related to pulmonary fibrosis, were confirmed, with GAPDH used as an internal control.

[4] = test system: Human Gastric cancer cell, SNU-719; assay: Relative cell viability CCK-8, SNU-719; assay type: cell-based; conditions: 48 hours
Description: Human-derived breast cancer cell line MCF-7, human-derived lung cancer cell line A549, human-derived colorectal cancer cell line HCT-116, human pancreatic cancer cell line AsPC-1, glioblastoma cell line A172, and melanoma cell line Malme-3M were obtained from the Korean Cell Bank. gastric cancer cell line SNU-719, and bladder cancer cell line T24 were cultured in RPMI-1640 medium containing 10% FBS.
Following stabilization, the cells were harvested using Trypsin-EDTA treatment, centrifuged at 1,200 rpm for 3 minutes, the supernatant was removed, and the cells were resuspended in the same medium. They were then seeded into a 96-well plate (Costar 96-well cell culture plate, Corning) at 100 μL per well, and the conditions were adjusted as indicated in Table 5.
The cells were cultured in a 5% CO2 incubator at 37° C. for 24 hours, and after stabilization of the cells, each plate was washed with 200 μL of PBS per well and treated with 50 μL of culture medium per well.
After that, 10 μL of CCK-8 was added to each well, and the plate was incubated again at 37° C. in a 5% CO2 incubator for 2 hours.
In other words, when the survival rate of untreated cells (DMSO) is set at 100%, the relative cell survival rate in each group treated with the drug at different concentrations is indicated.

Kd [1]: ~0.371 µM
SMILES: Nc1ncccc1C(=O)NCCCCCCCCCCCCN1CCNCC1 [Compound 14, 2-Amino-N-(12-(piperazin-1-yl)dodecyl)nicotinamide]
Animals with graft pinkening and good blood flow ([2]; day 10 post-transplantation): three out of five
Animals with graft pinkening and good blood flow ([2]; day 15 post-transplantation): one out of five
Protein expression of Collagen I [3]: inhibited in a concentration-dependent manner
viability at 1 µM ([4]; 1 μM): 49.9%
viability at 10 µM ([4]; 10 μM): 47.8%
viability at 30 µM ([4]; 30 μM): 44.4%
viability at 50 µM ([4]; 50 μM): 45.5%
